Reference: paper PMC6440977, “Nucleoside analogue activators of cyclic AMP-independent protein kinase A of Trypanosoma” (Nature Communications, 2019)
Several values for one entry are separate records, joined by “and”; a condition that tells them apart may be missing. Equal values may be shown once. Read-outs that look alike come from different tables or passages of the source.

Experiments:
T. brucei BSF cells (WT) = assay: Alamar blue cell viability assay, wild type; details: for EC50: wild type cells;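 on all read-outs here: trypanosomes seeded at 5×10^3 per ml and grown 72 h with compound, then resazurin 0.5 mM added for 4 h as the viability read-out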
[1] = test system: T. brucei ∆pkar/∆pkar (pkar KO) cells; assay: microbe, parasite or virus in culture; format: cell-based, Trypanosoma brucei; details: for EC50: pkar KO cells
[2] = target: T. brucei PKAR-PKAC1 holoenzyme (Trypanosoma brucei, UniProt Q9GU80); assay: biochemical; format: biochemical; details: for In vitro kinase assay: technical replicates
[3] = test system: RXXS*/T* site phosphorylation; assay: Western blot of global RXXS*/T* site phosphorylation (phospho-PKA substrate antibody); format: cell-based, Trypanosoma brucei; details: wild type, 2 µM, 10 min
metacaspase 4 (MCA4) = format: cell-based, Trypanosoma brucei; details: for MCA4 counts / MCA4 normalized / MCA4 fold change: 4 µM; for MCA4 normalized: normalized to PFR-A/C; for MCA4 fold change: untreated WT set to 1
T. brucei PKAR(199–499) = T. brucei PKAR(199–499) (Trypanosoma brucei, UniProt Q9GU80); assay: biochemical; format: binding; parameters: Thermodynamics (ITC) -TΔS / Thermodynamics (ITC) ΔG / Thermodynamics (ITC) ΔH: unit: kcal/mol
T. brucei PKA [4] = target: T1, T. brucei PKA (Trypanosoma brucei brucei, UniProt Q9GU80); assay: In vivo PKA reporter assay (VASP Ser-157 phosphorylation, western blot); format: cell-based;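 further: T. brucei cells expressing human VASP as heterologous PKA substrate, compound exposure at 37 °C, western blot of phospho (50 kDa) versus unphosphorylated (46 kDa) VASP band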
human PKARIα = target: T2, human PKARIα (Homo sapiens, UniProt P10644); assay: Binding by isothermal titration calorimetry (ITC)
T2 construct: The full length ORFs (amplified with primers introducing the respective); 6xHis followed by TEV site (N); made in house; host or cells: E. coli Rosetta D3

[5] = target: T3, mammalian PKARIα2–2PKACα holoenzyme (Homo sapiens, UniProt P10644); assay: In vitro kinase assay with purified mammalian holoenzyme; format: biochemical, human PKARIα, mouse PKACα; details: for In vitro kinase assay: technical replicates
T3 construct: The full length ORFs (amplified with primers introducing the respective); made in house; host or cells: E. coli strain APE304 (adenylate cyclase-deficient)

PKAC1/2 = format: cell-based, Trypanosoma brucei; details: 4 µM; for PKAC1/2 normalized: normalized to PFR-A/C; for PKAC1/2 fold change: untreated WT set to 1
[6] = test system: T. brucei PKA holoenzyme (HA-PKAC2); format: biochemical, Trypanosoma brucei; details: for in vitro kinase assay [CPM], average: average of 3; for in vitro kinase assay [CPM]: independent replicates
T. brucei PKA [7] = target: T1, T. brucei PKA; details: ref Shalaby et al. (reference 23 in manuscript); cited from earlier work
[8] = test system: T. brucei PKA holoenzyme (Ty1-PKAC1); format: biochemical, Trypanosoma brucei; details: for in vitro kinase assay [CPM], average: average of 3; for in vitro kinase assay [CPM]: independent replicates
[9] = test system: T. brucei PKA holoenzyme (PKAR-Ty1); format: biochemical, Trypanosoma brucei; details: for in vitro kinase assay [CPM], average: average of 3; for in vitro kinase assay [CPM]: independent replicates
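Wherever PKAC1/2 counts is given: trypanosoma brucei cells, PKAC1/2 signal from western blots read on an infrared fluorescence scanning system.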
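Wherever PKAC1/2 fold change is given: trypanosoma brucei cells, PKAC1/2 signal from western blots read on an infrared fluorescence scanning system.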
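Wherever PKAC1/2 normalized is given: trypanosoma brucei cells, PKAC1/2 signal from western blots read on an infrared fluorescence scanning system.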

Sequence of T. brucei PKAR(199–499) (Q9GU80 entry or part of it): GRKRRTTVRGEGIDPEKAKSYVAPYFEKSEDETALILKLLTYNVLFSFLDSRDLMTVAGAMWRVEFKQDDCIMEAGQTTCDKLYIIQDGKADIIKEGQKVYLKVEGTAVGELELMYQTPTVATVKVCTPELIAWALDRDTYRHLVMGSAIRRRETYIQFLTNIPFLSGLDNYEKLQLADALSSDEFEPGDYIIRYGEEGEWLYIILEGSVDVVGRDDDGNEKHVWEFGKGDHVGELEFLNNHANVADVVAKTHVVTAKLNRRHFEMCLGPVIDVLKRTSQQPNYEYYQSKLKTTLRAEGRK
T3 sequence (P10644 whole entry): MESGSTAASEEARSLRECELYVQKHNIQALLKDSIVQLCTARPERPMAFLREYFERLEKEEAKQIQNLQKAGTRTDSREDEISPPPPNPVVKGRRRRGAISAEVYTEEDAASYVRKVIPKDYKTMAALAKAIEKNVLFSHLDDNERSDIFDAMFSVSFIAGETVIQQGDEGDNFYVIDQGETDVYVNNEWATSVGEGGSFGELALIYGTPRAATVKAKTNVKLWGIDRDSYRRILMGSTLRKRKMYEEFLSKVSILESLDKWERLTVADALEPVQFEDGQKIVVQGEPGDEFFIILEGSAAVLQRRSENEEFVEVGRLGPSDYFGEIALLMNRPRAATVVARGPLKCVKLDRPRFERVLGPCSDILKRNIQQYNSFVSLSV
T1 sequence (Q38DS1 entry or part of it): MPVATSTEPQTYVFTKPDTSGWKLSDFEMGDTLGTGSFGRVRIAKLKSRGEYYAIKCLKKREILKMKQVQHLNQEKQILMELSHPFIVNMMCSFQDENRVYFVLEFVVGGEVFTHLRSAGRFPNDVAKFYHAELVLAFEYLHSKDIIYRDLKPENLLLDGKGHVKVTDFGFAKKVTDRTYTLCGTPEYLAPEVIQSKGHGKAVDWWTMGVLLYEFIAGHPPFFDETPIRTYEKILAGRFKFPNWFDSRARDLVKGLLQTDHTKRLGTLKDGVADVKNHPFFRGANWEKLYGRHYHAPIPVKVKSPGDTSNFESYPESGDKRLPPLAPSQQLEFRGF
T1 sequence (Q38DR5 entry or part of it, further chain): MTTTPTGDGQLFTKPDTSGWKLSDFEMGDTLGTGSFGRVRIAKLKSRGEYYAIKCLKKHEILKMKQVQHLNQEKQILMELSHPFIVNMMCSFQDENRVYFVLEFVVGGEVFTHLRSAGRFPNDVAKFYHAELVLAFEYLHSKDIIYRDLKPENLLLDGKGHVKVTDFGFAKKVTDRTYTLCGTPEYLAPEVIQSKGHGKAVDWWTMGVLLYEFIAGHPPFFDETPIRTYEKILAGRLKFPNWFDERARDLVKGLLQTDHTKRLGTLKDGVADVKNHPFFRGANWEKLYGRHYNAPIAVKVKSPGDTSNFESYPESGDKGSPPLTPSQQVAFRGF
T1 sequence (Q9GU80 entry or part of it): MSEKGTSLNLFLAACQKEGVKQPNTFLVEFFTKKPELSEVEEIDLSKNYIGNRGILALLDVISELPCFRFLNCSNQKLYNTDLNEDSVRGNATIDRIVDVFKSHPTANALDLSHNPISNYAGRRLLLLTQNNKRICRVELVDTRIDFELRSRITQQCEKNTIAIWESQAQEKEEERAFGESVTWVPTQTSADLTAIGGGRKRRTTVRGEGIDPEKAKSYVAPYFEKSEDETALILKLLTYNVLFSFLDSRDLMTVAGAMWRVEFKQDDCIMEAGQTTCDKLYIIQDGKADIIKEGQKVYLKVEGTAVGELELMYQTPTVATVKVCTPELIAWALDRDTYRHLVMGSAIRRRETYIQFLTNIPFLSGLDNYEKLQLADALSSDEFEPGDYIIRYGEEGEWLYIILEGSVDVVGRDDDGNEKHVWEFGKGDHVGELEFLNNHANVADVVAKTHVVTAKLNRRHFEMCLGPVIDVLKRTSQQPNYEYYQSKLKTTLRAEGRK
Sequence of T. brucei PKAR-PKAC1 holoenzyme (Q38DR5 entry or part of it): as the sequence (Q38DR5 entry or part of it, further chain) above
T2 sequence (P10644 whole entry): as the sequence (P10644 whole entry) above

N#Cc1cn([C@@H]2O[C@H](CO)[C@@H](O)[C@H]2O)c2ncnc(N)c12 [Toyo, 7-Cyano-7-deazaadenosine]
IC50 (T. brucei BSF cells (WT); Trypanosoma brucei, 72 h, read-out: IC50 growth WT): 739 ± 59 nM
EC50 (T. brucei BSF cells (WT); Trypanosoma brucei, read-out: EC50, Alamar blue cell viability assay, WT, individual replicate results): 866 nM
EC50 (T. brucei BSF cells (WT); read-out: EC50, Alamar blue cell viability assay, WT, individual replicate results): 746 nM and 898 nM and 614 nM and 641 nM and 510 nM and 901 nM
IC50 ([1]; Trypanosoma brucei, 72 h, read-out: IC50 growth pkar KO): 690 ± 58 nM
EC50 ([1]; Trypanosoma brucei, read-out: EC50, Alamar blue cell viability assay, KO, individual replicate results): 941 nM
EC50 ([1]; read-out: EC50, Alamar blue cell viability assay, KO, individual replicate results): 768 nM and 560 nM and 610 nM and 492 nM and 666 nM and 791 nM
In vitro kinase assay ([2]; 0.001 µM): 0.11 U/ml and 0.14 U/ml
In vitro kinase assay ([2]; 0.01 µM): 0.16 U/ml
In vitro kinase assay ([2]; 0.02 µM): 0.18 U/ml and 0.15 U/ml
In vitro kinase assay ([2]; 0.04 µM): 0.31 U/ml and 0.25 U/ml
In vitro kinase assay ([2]; 0.08 µM): 0.3 U/ml and 0.33 U/ml
In vitro kinase assay ([2]; 0.16 µM): 0.45 U/ml and 0.4 U/ml
In vitro kinase assay ([2]; 0.31 µM): 0.58 U/ml and 0.64 U/ml
In vitro kinase assay ([2]; 0.63 µM): 0.61 U/ml and 0.73 U/ml
In vitro kinase assay ([2]; 1.25 µM): 0.71 U/ml and 0.74 U/ml
In vitro kinase assay ([2]; 2.5 µM): 0.78 U/ml and 0.82 U/ml
In vitro kinase assay ([2]; 5 µM): 0.82 U/ml and 0.75 U/ml and 4.49 U/ml and 4.39 U/ml
EC50 ([2]; kemptide phosphorylation, mean ± SD, read-out: EC50 in vitro PKA assay): 234 ± 92 nM
increase in global RXXS*/T* site phosphorylation [3]: 3–4 fold
MCA4 counts (metacaspase 4 (MCA4); WT, 12 h): 10.96
MCA4 normalized (metacaspase 4 (MCA4); WT, 12 h): 7.611
MCA4 fold change (metacaspase 4 (MCA4); WT, 12 h): 0.5155
MCA4 counts (metacaspase 4 (MCA4); WT, 18 h): 19.07
MCA4 normalized (metacaspase 4 (MCA4); WT, 18 h): 24.1392
MCA4 fold change (metacaspase 4 (MCA4); WT, 18 h): 1.635
MCA4 counts (metacaspase 4 (MCA4); WT, 24 h): 23.58
MCA4 normalized (metacaspase 4 (MCA4); WT, 24 h): 24.8211
MCA4 fold change (metacaspase 4 (MCA4); WT, 24 h): 1.681
MCA4 abundance, in words (metacaspase 4 (MCA4); later time points, PKA-independent): elevated
MCA4 counts (metacaspase 4 (MCA4); pkar KO, 12 h): 13.45
MCA4 normalized (metacaspase 4 (MCA4); pkar KO, 12 h): 0.4781
MCA4 fold change (metacaspase 4 (MCA4); pkar KO, 12 h): 0.9855
MCA4 counts (metacaspase 4 (MCA4); pkar KO, 18 h): 12.35
MCA4 normalized (metacaspase 4 (MCA4); pkar KO, 18 h): 0.669
MCA4 fold change (metacaspase 4 (MCA4); pkar KO, 18 h): 1.379
MCA4 counts (metacaspase 4 (MCA4); pkar KO, 24 h): 14.17
MCA4 normalized (metacaspase 4 (MCA4); pkar KO, 24 h): 0.8557
MCA4 fold change (metacaspase 4 (MCA4); pkar KO, 24 h): 1.764
MCA4 abundance, in words (metacaspase 4 (MCA4); wild type, 12 h post induction): decreased
Kd (T. brucei PKAR(199–499); 298 K, mean ± SD, n=3, read-out: KD in vitro binding to PKAR (ITC)): 57 ± 25 nM
−TΔS (entropic component of binding) (T. brucei PKAR(199–499); ITC, mean): -0.9 kcal/mol
Thermodynamics (ITC) -TΔS (T. brucei PKAR(199–499); independent replicates): -2.01 and -0.373 and -0.411
Thermodynamics (ITC) ΔG (T. brucei PKAR(199–499); independent replicates): -10.3 and -9.67 and -9.84
Thermodynamics (ITC) ΔH (T. brucei PKAR(199–499); independent replicates): -8.26 and -9.3 and -9.43
Molar ratio of binding (ITC) (T. brucei PKAR(199–499); ligand to protein, mean ± SD, n=3): 2.1 ± 0.1
EC50 (T. brucei PKA [4]; VASP reporter, 15 min treatment, mean ± SD, read-out: EC50 in vivo PKA assay): 88 nM and 87.6 nM
induction of VASP phosphorylation in pkar knock out, in words (T. brucei PKA [4]; homozygous deletion of PKAR): did not induce phosphorylation of VASP
binding to purified human PKARIα, in words (human PKARIα): did not bind
In vitro kinase assay ([5]; 0.05 µM): 0.0536 U/ml and 0.052 U/ml
In vitro kinase assay ([5]; 0.5 µM): 0.0466 U/ml and 0.0501 U/ml
In vitro kinase assay ([5]; 5 µM): 0.0571 U/ml and 0.0671 U/ml
In vitro kinase assay ([5]; 50 µM): 0.067 U/ml and 0.0605 U/ml
activation of mammalian PKARIα2–2PKACα holoenzyme, in words ([5]; up to 270-fold above EC50 for T. brucei PKA holoenzyme): did not activate
PKAC1/2 counts (PKAC1/2; WT, 12 h): 34.11
PKAC1/2 normalized (PKAC1/2; WT, 12 h): 23.6875
PKAC1/2 fold change (PKAC1/2; WT, 12 h): 0.1712
PKAC1/2 counts (PKAC1/2; WT, 18 h): 35.81
PKAC1/2 normalized (PKAC1/2; WT, 18 h): 45.3291
PKAC1/2 fold change (PKAC1/2; WT, 18 h): 0.3275
PKAC1/2 counts (PKAC1/2; WT, 24 h): 31.4
PKAC1/2 normalized (PKAC1/2; WT, 24 h): 33.0526
PKAC1/2 fold change (PKAC1/2; WT, 24 h): 0.2388
PKAC1/2 counts (PKAC1/2; pkar KO, 12 h): 38.16
PKAC1/2 normalized (PKAC1/2; pkar KO, 12 h): 1.357
PKAC1/2 fold change (PKAC1/2; pkar KO, 12 h): 0.08353
PKAC1/2 counts (PKAC1/2; pkar KO, 18 h): 35.91
PKAC1/2 normalized (PKAC1/2; pkar KO, 18 h): 1.945
PKAC1/2 fold change (PKAC1/2; pkar KO, 18 h): 0.1198
PKAC1/2 counts (PKAC1/2; pkar KO, 24 h): 34.95
PKAC1/2 normalized (PKAC1/2; pkar KO, 24 h): 2.111
PKAC1/2 fold change (PKAC1/2; pkar KO, 24 h): 0.13

Nc1nc2c(ncn2[C@@H]2O[C@@H]3COP(=O)(O)O[C@H]3[C@H]2O)c(=O)[nH]1 [cGMP]
concentration at which the holoenzyme is activated [6]: ≥ 100 µM
in vitro kinase assay [CPM], PKI ([6]; 0.1 mM + 5 µM PKI(5-24)): 375.47 CPM
in vitro kinase assay [CPM], average ([6]; 0.1 mM): 2249 CPM
in vitro kinase assay [CPM] ([6]; 0.1 mM): 2477.88 CPM and 2206.3 CPM and 2062.83 CPM
in vitro kinase assay [CPM], PKI ([6]; 1 mM + 5 µM PKI(5-24)): 760.33 CPM
in vitro kinase assay [CPM], average ([6]; 1 mM): 8405.46 CPM
in vitro kinase assay [CPM] ([6]; 1 mM): 9366.36 CPM and 9774.29 CPM and 6075.73 CPM
cGMP concentration activating T. brucei PKA (T. brucei PKA [7]): ≥ 20 µM
concentration at which the holoenzyme is activated [8]: ≥ 100 µM
in vitro kinase assay [CPM], PKI ([8]; 0.1 mM + 5 µM PKI(5-24), Supp Fig 3b): 1147.4 CPM
in vitro kinase assay [CPM], average ([8]; 0.1 mM, Supp Fig 3b): 13459.0 CPM
in vitro kinase assay [CPM] ([8]; 0.1 mM, Supp Fig 3b): 15124.3 CPM and 11079.5 CPM and 14173.3 CPM
in vitro kinase assay [CPM], PKI ([8]; 1 mM + 5 µM PKI(5-24), Supp Fig 3b): 3732 CPM
in vitro kinase assay [CPM], PKI ([8]; 1 mM + 5 µM PKI(5-24), Supp Fig 3c): 1928.6 CPM
in vitro kinase assay [CPM], average ([8]; 1 mM, Supp Fig 3b): 48614.9 CPM
in vitro kinase assay [CPM] ([8]; 1 mM, Supp Fig 3b): 51091.7 CPM and 52665 CPM and 42088 CPM
in vitro kinase assay [CPM], average ([8]; 1 mM, Supp Fig 3c): 18465.6 CPM
in vitro kinase assay [CPM] ([8]; 1 mM, Supp Fig 3c): 15510 CPM and 18398 CPM and 21488.7 CPM
concentration at which the holoenzyme is activated [9]: ≥ 100 µM
in vitro kinase assay [CPM], PKI ([9]; 0.1 mM + 5 µM PKI(5-24)): 1137.33 CPM
in vitro kinase assay [CPM], average ([9]; 0.1 mM): 8446.6 CPM
in vitro kinase assay [CPM] ([9]; 0.1 mM): 9140 CPM and 8772.75 CPM and 7427.05 CPM
in vitro kinase assay [CPM], PKI ([9]; 1 mM + 5 µM PKI(5-24)): 3682.78 CPM
in vitro kinase assay [CPM], average ([9]; 1 mM): 22856.7 CPM
in vitro kinase assay [CPM] ([9]; 1 mM): 17347.2 CPM and 27346.7 CPM and 23876.3 CPM
